The target of the assay is T1, RmtA (Pseudomonas aeruginosa, UniProt Q8GRA1).
T1 sequence (Q8GRA1 1-251): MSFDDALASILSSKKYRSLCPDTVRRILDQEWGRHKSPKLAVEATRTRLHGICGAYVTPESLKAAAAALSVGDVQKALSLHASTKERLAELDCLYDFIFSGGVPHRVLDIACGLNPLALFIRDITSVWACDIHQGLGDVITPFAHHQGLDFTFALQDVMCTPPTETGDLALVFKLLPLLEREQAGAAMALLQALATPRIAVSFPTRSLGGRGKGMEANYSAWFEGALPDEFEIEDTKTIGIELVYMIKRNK
It is filed as biochemical.

For `Nc1ncnc2c1ncn2[C@@H]1O[C@H](CSCC[C@H](N)C(=O)O)[C@@H](O)[C@H]1O` [SAH], inhibition was half-maximal at 9.33 ± 0.07 µM (IC50).
The result for `Nc1ncnc2c1ncn2[C@@H]1O[C@H](C[C@@H](N)CC[C@H](N)C(=O)O)[C@@H](O)[C@H]1O` [sinefungin] reads 19.95 ± 0.09 µM.

(Values after article PMC2651799 (Nucleic Acids Research, 2009).)
